{"source": "patent US8987247B2", "about": "“Monoacylglycerol lipase inhibitors for the treatment of metabolic diseases and related disorders” (Janssen Pharmaceutica NV, priority 2011, dated 2015)", "key": {"rats, strain CD(SD)IGS": {"test_system": "rats, strain CD(SD)IGS", "assay": "5-Day Repeat Dose with Weight Monitoring in Rats", "format": "in vivo, rat", "conditions": "for Mean body weight Change: Day −1 to Day 4", "description": "Male and Female rats, strain CD(SD)IGS (Charles River Laboratories International, Inc., MA) of 8 weeks of age were individually housed and maintained on a 12-hr light/dark cycle. Rats were fed ad libitum with a standard diet (Rodent Diet 5001, PMI Nutrition International, Indiana). […] Rats were weighed predose and on days 1 and 4. Clinical observations were recorded prior to dosing, at 2 hours post-dose each day. Rats were fasted overnight on Day 4 and blood was collected on Day 5 from the retro-orbital sinus following anesthesia with a 70/30% carbon dioxide/oxygen mixture. Blood was collected into tubes containing tripotassium EDTA for hematology panel and no additive for serum chemistry determinations. Rats were euthanized by CO2 inhalation and thoracic and abdominal cavities were examined and weights of liver determined."}, "Sprague-Dawley rats": {"test_system": "Sprague-Dawley rats", "assay": "Effect on Food Intake after Food Deprivation in Rats", "format": "in vivo, rat", "conditions": "30 mg/kg p.o., rats fasted 18 h, N=6/group", "procedure": "In rats, food deprivation or restriction is a standard method for inducing increased food intake. In other words, depriving the rats of food and then subsequently presenting them with food results, predictably in over-eating (also referred to as rebound hyperphagia). To study the effect of compounds of formula (I) on feeding behavior, rats were treated after food deprivation.\nAdult, male Sprague-Dawley rats were single-housed on a 12 h light/dark cycle and received food and water ad libitum, except where otherwise indicated. Rats were allowed to acclimate to the housing room for at least 1 week prior to testing. One day prior to treatment, each rat was transferred to a new cage that was free of bedding and contained a wire grid floor, and all food was removed. Rats were fasted for 18 h before treatment. Rats were divided into two groups (N=6/group) and received either a compound of formula (I) at 30 mg/kg, p.o. or vehicle. At dosing, all rats received a pre-measured amount of standard rodent chow. After 30 min, the food was re-weighed to determine the amount consumed."}, "beagle dogs": {"test_system": "beagle dogs", "assay": "5-Day Repeat Dose with Weight Monitoring in Dogs", "format": "in vivo, dog", "design": "key to Clinical Observations: Stained urogenital area (no. of dogs) / Body Temperature Change / Body Weight Change: —: No noteworthy findings", "conditions": "for Body Weight Change: 5 days, Day-1 to Day 5; for Body Temperature Change: 4 hours postdose on Day 0", "procedure": "Male and female beagle dogs, 15 months of age, were individually housed and maintained on a 12-hourlight/dark cycle. Dogs were given 300 g/day of Advanced Protocol™ Non-Certified High Density Canine Diet 5L18 (pMfID Nutrition International). Food was provided 0.5 to 2 hours post-dose, except on days of toxicokinetic blood sampling when food was provided after the 4 hour time point. Canned food was supplemented beginning on day 3. A compound of formula (I) was administered orally via gavage using a stomach tube once daily (initiating on Day 0) to male and female dogs (1 each per dose) for 5 consecutive days at 0, 5, 15 and 45 mg/kg/day. Dogs were weighed on Day-1 and Day 5 prior to necropsy. Food consumption was determined 3 days predose and then daily. Body temperature was measured at 0 (predose), 4 and 24 hours on Days 0 and 4. Clinical observations were recorded predose and 2 hours postdose daily. Dogs were fasted overnight prior to blood collection. Blood was collected from all dogs predose on Day-8 and prior to dosing on Day 4 from the jugular vein. Blood was collected into tubes containing tripotassium EDTA for hematology and no additive for serum chemistry determinations. At necropsy, the thoracic and abdominal cavities were examined."}}, "note": "Marks after values point to notes of the source that are not given here.", "data": [{"smiles": "O=C(c1ccc2c(ccn2-c2ccc(F)cc2)c1)N1CC(N2CCN(C(=O)c3nccs3)CC2)C1", "note": "[Cpd 1, 1-(4-Fluorophenyl)-5-({3-[4-(1,3-thiazol-2-ylcarbonyl)piperazin-1-yl]azetidin-1-yl}carbonyl)-1H-indole]", "values": [{"measurement": "Mean body weight", "setting": "rats, strain CD(SD)IGS; female rats, 15 mg/kg/day oral, Day 4", "result": "226.98 +/− 10.29"}, {"measurement": "Mean body weight", "setting": "rats, strain CD(SD)IGS; female rats, 15 mg/kg/day oral, Day −1 (predose)", "result": "203.86 +/− 6.13"}, {"measurement": "Mean body weight", "setting": "rats, strain CD(SD)IGS; female rats, 50 mg/kg/day oral, Day −1 (predose)", "result": "199.16 +/− 5.66"}, {"measurement": "Mean body weight Change", "setting": "rats, strain CD(SD)IGS; female rats, 50 mg/kg/day oral", "result": "8.54 +/− 2.32"}, {"measurement": "Mean body weight", "setting": "rats, strain CD(SD)IGS; male rats, 15 mg/kg/day oral, Day 4", "result": "301.94 +/− 7.52"}, {"measurement": "Mean body weight", "setting": "rats, strain CD(SD)IGS; male rats, 15 mg/kg/day oral, Day −1 (predose)", "result": "273.34 +/− 4.80"}, {"measurement": "Mean body weight Change", "setting": "rats, strain CD(SD)IGS; male rats, 15 mg/kg/day oral", "result": "28.60 +/− 2.90"}, {"measurement": "Mean body weight", "setting": "rats, strain CD(SD)IGS; male rats, 50 mg/kg/day oral, Day 4", "result": "278.78 +/− 6.95"}, {"measurement": "Mean body weight", "setting": "rats, strain CD(SD)IGS; male rats, 50 mg/kg/day oral, Day −1 (predose)", "result": "272.66 +/− 6.92"}, {"measurement": "Mean body weight Change", "setting": "rats, strain CD(SD)IGS; male rats, 50 mg/kg/day oral", "result": "6.10 +/− 3.56*"}, {"measurement": "Food Intake (g of food over 30 min)", "setting": "Sprague-Dawley rats", "result": "1.60 ± 1.02", "unit": "g"}, {"measurement": "Clinical Observations: Emesis (no. of dogs)", "setting": "beagle dogs; dog F:1, 5 mg/kg daily oral", "result": 1}, {"measurement": "Clinical Observations: Feces, absent (no. of dogs)", "setting": "beagle dogs; dog F:1, 5 mg/kg daily oral", "result": 1}, {"measurement": "Clinical Observations: Feces, decrease (no. of dogs)", "setting": "beagle dogs; dog F:1, 5 mg/kg daily oral", "result": 1}, {"measurement": "Clinical Observations: Stained urogenital area (no. of dogs)", "setting": "beagle dogs; dog F:1, 5 mg/kg daily oral", "result": "—"}, {"measurement": "Food Consumption", "setting": "beagle dogs; dog F:1, 5 mg/kg daily oral", "result": "↓"}, {"measurement": "Body Weight Change", "setting": "beagle dogs; dog F:1, 5 mg/kg daily oral", "result": "−0.90"}, {"measurement": "Body Temperature Change", "setting": "beagle dogs; dog F:1, 5 mg/kg daily oral", "result": "−3.2"}, {"measurement": "Clinical Observations: Emesis (no. of dogs)", "setting": "beagle dogs; dog F:1, 15 mg/kg daily oral", "result": 1}, {"measurement": "Clinical Observations: Feces, absent (no. of dogs)", "setting": "beagle dogs; dog F:1, 15 mg/kg daily oral", "result": 1}, {"measurement": "Clinical Observations: Feces, decrease (no. of dogs)", "setting": "beagle dogs; dog F:1, 15 mg/kg daily oral", "result": 1}, {"measurement": "Clinical Observations: Stained urogenital area (no. of dogs)", "setting": "beagle dogs; dog F:1, 15 mg/kg daily oral", "result": 1}, {"measurement": "Food Consumption", "setting": "beagle dogs; dog F:1, 15 mg/kg daily oral", "result": "↓"}, {"measurement": "Body Weight Change", "setting": "beagle dogs; dog F:1, 15 mg/kg daily oral", "result": "—"}, {"measurement": "Body Temperature Change", "setting": "beagle dogs; dog F:1, 15 mg/kg daily oral", "result": "−1.6"}, {"measurement": "Clinical Observations: Emesis (no. of dogs)", "setting": "beagle dogs; dog F:1, 45 mg/kg daily oral", "result": 1}, {"measurement": "Clinical Observations: Feces, absent (no. of dogs)", "setting": "beagle dogs; dog F:1, 45 mg/kg daily oral", "result": 1}, {"measurement": "Clinical Observations: Feces, decrease (no. of dogs)", "setting": "beagle dogs; dog F:1, 45 mg/kg daily oral", "result": 1}, {"measurement": "Clinical Observations: Stained urogenital area (no. of dogs)", "setting": "beagle dogs; dog F:1, 45 mg/kg daily oral", "result": 1}, {"measurement": "Food Consumption", "setting": "beagle dogs; dog F:1, 45 mg/kg daily oral", "result": "↓"}, {"measurement": "Body Weight Change", "setting": "beagle dogs; dog F:1, 45 mg/kg daily oral", "result": "−1.28"}, {"measurement": "Body Temperature Change", "setting": "beagle dogs; dog F:1, 45 mg/kg daily oral", "result": "—"}, {"measurement": "Clinical Observations: Emesis (no. of dogs)", "setting": "beagle dogs; dog M:1, 5 mg/kg daily oral", "result": 1}, {"measurement": "Clinical Observations: Feces, absent (no. of dogs)", "setting": "beagle dogs; dog M:1, 5 mg/kg daily oral", "result": 1}, {"measurement": "Clinical Observations: Feces, decrease (no. of dogs)", "setting": "beagle dogs; dog M:1, 5 mg/kg daily oral", "result": 1}, {"measurement": "Clinical Observations: Stained urogenital area (no. of dogs)", "setting": "beagle dogs; dog M:1, 5 mg/kg daily oral", "result": "—"}, {"measurement": "Food Consumption", "setting": "beagle dogs; dog M:1, 5 mg/kg daily oral", "result": "↓"}, {"measurement": "Body Weight Change", "setting": "beagle dogs; dog M:1, 5 mg/kg daily oral", "result": "−1.10"}, {"measurement": "Body Temperature Change", "setting": "beagle dogs; dog M:1, 5 mg/kg daily oral", "result": "−3.4"}, {"measurement": "Clinical Observations: Emesis (no. of dogs)", "setting": "beagle dogs; dog M:1, 15 mg/kg daily oral", "result": 1}, {"measurement": "Clinical Observations: Feces, absent (no. of dogs)", "setting": "beagle dogs; dog M:1, 15 mg/kg daily oral", "result": 1}, {"measurement": "Clinical Observations: Feces, decrease (no. of dogs)", "setting": "beagle dogs; dog M:1, 15 mg/kg daily oral", "result": 1}, {"measurement": "Clinical Observations: Stained urogenital area (no. of dogs)", "setting": "beagle dogs; dog M:1, 15 mg/kg daily oral", "result": 1}, {"measurement": "Food Consumption", "setting": "beagle dogs; dog M:1, 15 mg/kg daily oral", "result": "↓"}, {"measurement": "Body Weight Change", "setting": "beagle dogs; dog M:1, 15 mg/kg daily oral", "result": "−0.74"}, {"measurement": "Body Temperature Change", "setting": "beagle dogs; dog M:1, 15 mg/kg daily oral", "result": "—"}, {"measurement": "Clinical Observations: Emesis (no. of dogs)", "setting": "beagle dogs; dog M:1, 45 mg/kg daily oral", "result": 1}, {"measurement": "Clinical Observations: Feces, absent (no. of dogs)", "setting": "beagle dogs; dog M:1, 45 mg/kg daily oral", "result": 1}, {"measurement": "Clinical Observations: Feces, decrease (no. of dogs)", "setting": "beagle dogs; dog M:1, 45 mg/kg daily oral", "result": 1}, {"measurement": "Clinical Observations: Stained urogenital area (no. of dogs)", "setting": "beagle dogs; dog M:1, 45 mg/kg daily oral", "result": 1}, {"measurement": "Food Consumption", "setting": "beagle dogs; dog M:1, 45 mg/kg daily oral", "result": "↓"}, {"measurement": "Body Weight Change", "setting": "beagle dogs; dog M:1, 45 mg/kg daily oral", "result": "−0.78"}, {"measurement": "Body Temperature Change", "setting": "beagle dogs; dog M:1, 45 mg/kg daily oral", "result": "−1.9"}]}]}
